Measurements as given in ChEMBL document CHEMBL4828735, “Discovery of N-((3S,4S)-4-(3,4-Difluorophenyl)piperidin-3-yl)-2-fluoro-4-(1-methyl-1H-pyrazol-5-yl)benzamide (Hu7691), a Potent and Selective Akt Inhibitor That Enables Decrease of Cutaneous Toxicity” (J Med Chem, 2021).

What was measured:
[1] = Oral bioavailability in Sprague-Dawley rat measured upto 72 hrs by LC-MS/MS analysis; type: ADME, organism-based; conditions: in vivo
[2] = AUC(0 to t) in Sprague-Dawley rat at 2 mg/kg, iv measured upto 24 hrs by LC-MS/MS analysis; type: ADME, organism-based; parameters: route intravenous, dose 2 mg/kg, time <=24; conditions: in vivo
[3] = tested on: 769-P; assay: Antiproliferative activity against human 769-P cells assessed as inhibition of cell growth incubated for 72 hrs by SRB method; type: functional, cell-based
[4] = tested on: U-87 MG; assay: Antiproliferative activity against human U-87MG cells assessed as inhibition of cell growth incubated for 72 hrs by SRB method; type: functional, cell-based, U-87MG ATCC
[5] = Toxicity in Sprague-Dawley rat assessed as effect on uterus at 25 to 75 mg/kg administered daily for 4 weeks by histopathological analysis; type: organism-based; conditions: in vivo, 672 h, dose 25-75 mg/kg
[6] = tested on: NCI-H1975; assay: Antiproliferative activity against human NCI-H1975 cells assessed as inhibition of cell growth incubated for 72 hrs by SRB method; type: functional, cell-based; conditions: NCI-H1975, 72 h
[7] = Toxicity in mouse assessed as brownish watery stool at 150 mg/kg; type: organism-based; conditions: in vivo
[8] = Toxicity in Sprague-Dawley rat assessed as effect on bone marrow at 25 to 75 mg/kg administered daily for 4 weeks by histopathological analysis; type: organism-based; conditions: in vivo, 672 h, dose 25-75 mg/kg
[9] = Microsomal stability in rat liver microsomes assessed as half life at 50 uM preincubated for 5 mins with NADPH followed by compound addition and measured upto 60 mins by LC-MS/MS analysis; type: ADME, Microsome
[10] = Microsomal stability in monkey liver microsomes assessed as half life at 50 uM preincubated for 5 mins with NADPH followed by compound addition and measured upto 60 mins by LC-MS/MS analysis; type: ADME, Macaca mulatta, Microsome; conditions: rhesus monkey
[11] = AUC(0 to infinity) in Sprague-Dawley rat at 2 mg/kg, iv measured upto 24 hrs by LC-MS/MS analysis; type: ADME, organism-based; parameters: route intravenous, dose 2 mg/kg, time <=24; conditions: in vivo
[12] = Microsomal stability in mouse liver microsomes assessed as intrinsic clearance at 50 uM preincubated for 5 mins with NADPH followed by compound addition and measured upto 60 mins by LC-MS/MS analysis; type: ADME, Microsome; conditions: read-out: CLH
[13] = tested on: SMMC-7721; assay: Antiproliferative activity against human SMMC-7721 cells assessed as inhibition of cell growth incubated for 72 hrs by SRB method; type: functional, cell-based; conditions: SMMC-7721, 72 h
[14] = target: Phosphatidylinositol 4,5-bisphosphate 3-kinase catalytic subunit alpha isoform (Homo sapiens, UniProt P42336); assay: Inhibition of PI3Kalpha (unknown origin)
Phosphatidylinositol 4,5-bisphosphate 3-kinase catalytic subunit alpha isoform, sequence (P42336 whole entry, canonical isoform): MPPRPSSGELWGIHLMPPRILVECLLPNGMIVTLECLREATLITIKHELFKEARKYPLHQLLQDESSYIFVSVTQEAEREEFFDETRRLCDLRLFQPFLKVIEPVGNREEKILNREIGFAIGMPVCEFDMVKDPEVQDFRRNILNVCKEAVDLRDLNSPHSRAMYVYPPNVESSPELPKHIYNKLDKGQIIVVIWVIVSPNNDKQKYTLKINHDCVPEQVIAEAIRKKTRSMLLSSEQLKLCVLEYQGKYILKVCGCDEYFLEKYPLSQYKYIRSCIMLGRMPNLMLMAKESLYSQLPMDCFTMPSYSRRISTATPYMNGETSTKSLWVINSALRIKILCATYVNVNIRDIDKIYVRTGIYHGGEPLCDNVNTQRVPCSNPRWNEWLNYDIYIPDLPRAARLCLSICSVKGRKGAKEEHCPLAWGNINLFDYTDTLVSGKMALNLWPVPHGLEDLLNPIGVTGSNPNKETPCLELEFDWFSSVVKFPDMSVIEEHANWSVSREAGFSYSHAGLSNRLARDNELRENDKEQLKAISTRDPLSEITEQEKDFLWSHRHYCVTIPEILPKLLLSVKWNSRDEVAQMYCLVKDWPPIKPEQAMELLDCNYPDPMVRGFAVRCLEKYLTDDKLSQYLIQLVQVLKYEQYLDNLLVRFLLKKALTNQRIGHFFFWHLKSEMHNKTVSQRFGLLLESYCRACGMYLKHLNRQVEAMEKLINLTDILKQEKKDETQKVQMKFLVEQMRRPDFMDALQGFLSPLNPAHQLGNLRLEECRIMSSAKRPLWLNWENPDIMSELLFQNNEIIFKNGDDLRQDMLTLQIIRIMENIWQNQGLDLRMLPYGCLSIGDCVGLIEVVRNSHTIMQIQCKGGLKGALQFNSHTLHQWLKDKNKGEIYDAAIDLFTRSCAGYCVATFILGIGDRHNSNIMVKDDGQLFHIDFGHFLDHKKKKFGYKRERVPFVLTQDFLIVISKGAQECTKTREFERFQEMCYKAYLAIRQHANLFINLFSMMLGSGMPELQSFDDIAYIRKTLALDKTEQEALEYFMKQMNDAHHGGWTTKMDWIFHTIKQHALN

[15] = target: CYP2C19 (Homo sapiens, UniProt P33261); assay: Inhibition of CYP2C19 (unknown origin) at 100 uM; type: ADME
CYP2C19, sequence (P33261 whole entry): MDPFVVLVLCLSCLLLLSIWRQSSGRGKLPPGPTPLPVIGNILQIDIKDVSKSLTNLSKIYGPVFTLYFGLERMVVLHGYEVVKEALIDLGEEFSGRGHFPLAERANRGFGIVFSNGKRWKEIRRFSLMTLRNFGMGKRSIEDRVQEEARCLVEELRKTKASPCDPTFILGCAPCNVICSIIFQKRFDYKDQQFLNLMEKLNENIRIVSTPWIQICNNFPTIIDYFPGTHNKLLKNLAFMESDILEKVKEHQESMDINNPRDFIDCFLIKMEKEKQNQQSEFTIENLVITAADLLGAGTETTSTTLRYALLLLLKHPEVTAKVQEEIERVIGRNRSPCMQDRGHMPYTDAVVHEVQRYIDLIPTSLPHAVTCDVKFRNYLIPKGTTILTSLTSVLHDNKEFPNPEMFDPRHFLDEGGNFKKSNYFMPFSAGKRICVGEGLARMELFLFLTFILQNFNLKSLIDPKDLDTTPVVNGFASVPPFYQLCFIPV

[16] = tested on: SK-OV-3; assay: Antiproliferative activity against human SK-OV-3 cells assessed as inhibition of cell growth incubated for 72 hrs by SRB method; type: functional, cell-based; conditions: SK-OV-3, 72 h
[17] = tested on: L02; assay: Antiproliferative activity against human HL7702 cells assessed as inhibition of cell growth incubated for 72 hrs by SRB method; type: cell-based; conditions: L02, 72 h
[18] = target: hERG (KCNH2) (Homo sapiens, UniProt Q12809); assay: Inhibition of human ERG expressed in HEK293 cells at 3 uM by whole cell patch clamp method relative to control; type: cell-based; conditions: HEK293 cells expressing hERG
hERG (KCNH2), sequence (Q12809 whole entry): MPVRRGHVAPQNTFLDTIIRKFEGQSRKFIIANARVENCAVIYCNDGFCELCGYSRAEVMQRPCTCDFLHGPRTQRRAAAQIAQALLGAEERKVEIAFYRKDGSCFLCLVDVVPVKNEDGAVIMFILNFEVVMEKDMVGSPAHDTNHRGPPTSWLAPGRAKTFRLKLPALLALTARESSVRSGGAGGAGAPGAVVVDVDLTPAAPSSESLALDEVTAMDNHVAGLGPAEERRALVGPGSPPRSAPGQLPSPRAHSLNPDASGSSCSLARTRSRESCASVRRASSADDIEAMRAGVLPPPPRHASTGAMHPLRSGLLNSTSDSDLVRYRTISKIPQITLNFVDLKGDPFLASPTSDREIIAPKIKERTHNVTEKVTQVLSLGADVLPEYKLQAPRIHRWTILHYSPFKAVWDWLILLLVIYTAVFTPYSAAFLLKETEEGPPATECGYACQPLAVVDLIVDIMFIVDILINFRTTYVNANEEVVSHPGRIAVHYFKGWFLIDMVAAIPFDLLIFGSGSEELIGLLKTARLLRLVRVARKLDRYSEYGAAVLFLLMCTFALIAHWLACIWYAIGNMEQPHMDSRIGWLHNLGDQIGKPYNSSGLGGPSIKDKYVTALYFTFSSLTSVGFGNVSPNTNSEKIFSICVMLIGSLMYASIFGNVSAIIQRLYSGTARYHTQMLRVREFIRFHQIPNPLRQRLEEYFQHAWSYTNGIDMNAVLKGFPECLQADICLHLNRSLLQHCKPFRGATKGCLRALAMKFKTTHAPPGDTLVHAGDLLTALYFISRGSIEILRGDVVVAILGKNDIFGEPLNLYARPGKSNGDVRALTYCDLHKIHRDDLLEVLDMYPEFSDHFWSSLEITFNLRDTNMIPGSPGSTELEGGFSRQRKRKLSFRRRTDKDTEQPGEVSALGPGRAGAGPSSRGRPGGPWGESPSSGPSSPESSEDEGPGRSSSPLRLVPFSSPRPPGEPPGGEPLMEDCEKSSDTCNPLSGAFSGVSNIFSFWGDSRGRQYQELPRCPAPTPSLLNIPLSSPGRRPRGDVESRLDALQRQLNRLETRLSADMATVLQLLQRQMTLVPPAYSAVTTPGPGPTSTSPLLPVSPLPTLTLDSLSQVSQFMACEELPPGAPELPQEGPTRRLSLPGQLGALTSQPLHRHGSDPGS

[19] = target: Cytochrome P450 2D6 (Homo sapiens, UniProt P10635); assay: Inhibition of CYP2D6 (unknown origin); type: ADME
Cytochrome P450 2D6, sequence (P10635 whole entry): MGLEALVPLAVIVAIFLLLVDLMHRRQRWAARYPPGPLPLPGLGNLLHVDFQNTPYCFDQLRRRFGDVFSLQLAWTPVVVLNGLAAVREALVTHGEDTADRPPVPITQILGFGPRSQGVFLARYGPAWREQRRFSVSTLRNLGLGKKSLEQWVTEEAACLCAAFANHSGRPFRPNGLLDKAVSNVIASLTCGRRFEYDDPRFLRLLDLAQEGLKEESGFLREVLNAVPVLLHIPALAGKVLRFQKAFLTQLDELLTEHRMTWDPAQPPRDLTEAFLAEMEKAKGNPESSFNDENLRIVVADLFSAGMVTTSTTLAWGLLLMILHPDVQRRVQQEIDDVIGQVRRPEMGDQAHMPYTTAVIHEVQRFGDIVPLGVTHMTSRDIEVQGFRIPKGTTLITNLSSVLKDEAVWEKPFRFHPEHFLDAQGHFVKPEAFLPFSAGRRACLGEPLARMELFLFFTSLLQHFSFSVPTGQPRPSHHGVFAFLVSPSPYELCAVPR

[20] = Microsomal stability in dog liver microsomes assessed as half life at 50 uM preincubated for 5 mins with NADPH followed by compound addition and measured upto 60 mins by LC-MS/MS analysis; type: ADME, Canis lupus familiaris, Microsome
[21] = target: Cytochrome P450 3A4 (Homo sapiens, UniProt P08684); assay: Inhibition of CYP3A4 (unknown origin); type: ADME
[22] = Toxicity in BALB/c nude mouse xenografted with human KHOS cells assessed as change in body weight at 12.5 to 50 mg/kg, ig administered once daily for 22 days; type: organism-based; conditions: in vivo, po, 528 h, dose 12.5-50 mg/kg, time 22 day
[23] = target: Ribosomal protein S6 kinase beta-1 (Homo sapiens, UniProt P23443); assay: Inhibition of P70S6K (unknown origin)
Ribosomal protein S6 kinase beta-1, sequence (P23443 whole entry): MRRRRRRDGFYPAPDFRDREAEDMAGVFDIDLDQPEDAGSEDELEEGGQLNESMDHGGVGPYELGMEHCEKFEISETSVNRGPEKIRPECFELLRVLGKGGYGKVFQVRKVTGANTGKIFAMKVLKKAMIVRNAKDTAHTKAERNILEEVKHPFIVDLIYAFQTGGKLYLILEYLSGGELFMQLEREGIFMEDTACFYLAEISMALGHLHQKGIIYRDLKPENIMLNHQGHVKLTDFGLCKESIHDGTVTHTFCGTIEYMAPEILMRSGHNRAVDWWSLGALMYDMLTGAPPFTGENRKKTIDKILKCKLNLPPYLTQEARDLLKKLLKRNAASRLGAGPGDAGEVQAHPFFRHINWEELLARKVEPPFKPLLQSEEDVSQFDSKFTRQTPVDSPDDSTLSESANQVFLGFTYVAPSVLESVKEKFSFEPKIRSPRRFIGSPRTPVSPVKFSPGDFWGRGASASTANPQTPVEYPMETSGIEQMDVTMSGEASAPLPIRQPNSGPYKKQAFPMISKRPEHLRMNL

[24] = Toxicity in Sprague-Dawley rat assessed as effect on spleen at 25 to 75 mg/kg administered daily for 4 weeks by histopathological analysis; type: organism-based; conditions: in vivo, 672 h, dose 25-75 mg/kg
[25] = Cmax in Sprague-Dawley rat at 15 mg/kg, ig measured upto 72 hrs by LC-MS/MS analysis; type: ADME, organism-based; parameters: route […], dose 15 mg/kg, time <=72; conditions: in vivo, po
[26] = Toxicity in Sprague-Dawley rat assessed as effect on jejunum at 25 to 75 mg/kg administered daily for 4 weeks by histopathological analysis; type: organism-based; conditions: in vivo, 672 h, dose 25-75 mg/kg
[27] = tested on: 786-0; assay: Antitumor activity against human 786-0 cells xenografted in ig dosed BALB/c nude mouse assessed as tumor growth inhibition administered once daily for 22 days; type: functional, organism-based; conditions: dose 12.5-50 mg/kg, time 22.0 day
[28] = target: RAC-alpha serine/threonine-protein kinase (Homo sapiens, UniProt P31749); assay: Inhibition of N-terminal GST-tagged human AKT1 (104 to 408 residues) expressed in baculovirus infected Sf21 cells incubated for 1 hr in presence of ATP by mobility shift assay
RAC-alpha serine/threonine-protein kinase, sequence (P31749 whole entry, the tested form may be a part): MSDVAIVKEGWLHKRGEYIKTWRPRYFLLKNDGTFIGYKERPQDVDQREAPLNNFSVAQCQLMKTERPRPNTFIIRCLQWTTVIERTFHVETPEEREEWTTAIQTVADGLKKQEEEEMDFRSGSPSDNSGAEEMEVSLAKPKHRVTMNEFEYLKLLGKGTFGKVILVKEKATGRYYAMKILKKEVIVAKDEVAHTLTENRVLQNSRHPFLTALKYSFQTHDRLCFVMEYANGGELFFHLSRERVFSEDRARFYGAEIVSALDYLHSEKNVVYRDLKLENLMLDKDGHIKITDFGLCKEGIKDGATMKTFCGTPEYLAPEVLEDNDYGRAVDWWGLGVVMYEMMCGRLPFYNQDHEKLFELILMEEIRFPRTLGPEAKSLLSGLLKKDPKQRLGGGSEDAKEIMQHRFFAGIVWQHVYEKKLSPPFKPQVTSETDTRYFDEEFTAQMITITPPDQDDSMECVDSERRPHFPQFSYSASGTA

[29] = target: Ribosomal protein S6 kinase alpha-5 (Homo sapiens, UniProt O75582); assay: Inhibition of MSK1 (unknown origin)
[30] = AUC(0 to infinity) in Sprague-Dawley rat at 15 mg/kg, ig measured upto 72 hrs by LC-MS/MS analysis; type: ADME, organism-based; parameters: route […], dose 15 mg/kg, time <=72; conditions: in vivo, po
[31] = Toxicity in Sprague-Dawley rat assessed as change in biochemical parameters at 25 to 75 mg/kg administered daily for 4 weeks; type: organism-based; conditions: in vivo, 672 h, dose 25-75 mg/kg
[32] = target: Protein kinase C theta type (Homo sapiens, UniProt Q04759); assay: Inhibition of PKCtheta (unknown origin)
[33] = Inhibition of PKA (unknown origin); parameters: species or system Homo sapiens
[34] = Antiproliferative activity against human 95-D cells assessed as inhibition of cell growth incubated for 72 hrs by SRB method; type: functional, cell-based
[35] = Toxicity in Sprague-Dawley rat assessed as appearance of scab on back skin at 25 to 75 mg/kg administered daily for 4 weeks; type: organism-based; conditions: in vivo, 672 h, dose 25-75 mg/kg
[36] = Drug metabolism in po dosed Sprague-Dawley rat bile assessed as M3 metabolite formation measured upto 24 hrs by UPLC-TOF-MS/MS analysis; type: ADME, organism-based; conditions: in vivo
[37] = target: Cyclin-dependent kinase 2 (Homo sapiens, UniProt P24941); assay: Inhibition of CDK2 (unknown origin)
[38] = Cmax in Beagle dog at 20 mg/kg, ig measured upto 96 hrs by LC-MS/MS analysis; type: ADME, organism-based, Canis lupus familiaris; parameters: route […], dose 20 mg/kg, time <=96; conditions: in vivo, po
[39] = tested on: U-251; assay: Antiproliferative activity against human U251 cells assessed as inhibition of cell growth incubated for 72 hrs by SRB method; type: functional, cell-based; conditions: U-251, 72 h
[40] = target: Serine/threonine-protein kinase Sgk1 (Homo sapiens, UniProt O00141); assay: Inhibition of SGK (unknown origin)
Serine/threonine-protein kinase Sgk1, sequence (O00141 whole entry): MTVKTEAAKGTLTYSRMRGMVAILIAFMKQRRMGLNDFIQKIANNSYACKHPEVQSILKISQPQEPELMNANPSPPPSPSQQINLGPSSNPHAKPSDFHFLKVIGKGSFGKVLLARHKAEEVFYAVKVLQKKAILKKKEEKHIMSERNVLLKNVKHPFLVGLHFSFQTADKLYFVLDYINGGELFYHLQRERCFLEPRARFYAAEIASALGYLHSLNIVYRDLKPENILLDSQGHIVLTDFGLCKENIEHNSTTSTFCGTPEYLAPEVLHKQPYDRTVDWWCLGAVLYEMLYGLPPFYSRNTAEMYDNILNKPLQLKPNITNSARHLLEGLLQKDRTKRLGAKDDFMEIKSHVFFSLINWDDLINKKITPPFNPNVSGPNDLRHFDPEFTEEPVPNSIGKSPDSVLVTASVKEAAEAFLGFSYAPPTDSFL

[41] = Cmax in Sprague-Dawley rat at 2 mg/kg, iv measured upto 24 hrs by LC-MS/MS analysis; type: ADME, organism-based; parameters: route intravenous, dose 2 mg/kg, time <=24; conditions: in vivo
[42] = Toxicity in Sprague-Dawley rat assessed as change in cell population at 25 to 75 mg/kg administered daily for 4 weeks; type: organism-based; conditions: in vivo, 672 h, dose 25-75 mg/kg

Molecule `Cl.Cn1nccc1-c1ccc(C(=O)N[C@@H]2CNCC[C@H]2c2ccc(F)c(F)c2)c(F)c1` has a bioavailability [1] of 66.2%, an AUC(0-t) at 24 h [2] of 459 ng·h/mL and an IC50 [3] of 7.76 µM. For the same molecule, the IC50 [4] was 9.26 µM, the Activity [5] was “Non-Toxic” and the IC50 [6] was 7.56 µM. The Activity [7] was “Toxic”, the Activity [8] was “Non-Toxic” and the half-life at 50 µM [9] was 1.16 h. It also gave a half-life at 50 µM [10] of 1.7 h, an AUC(0-inf) [11] of 533 ng·h/mL and a microsomal CLint at 50 µM [12] of 3.4 µL/min/mg. The IC50 [13] was 19.8 µM, the IC50 [14] was over 10 µM and the inhibition at 100 µM [15] was 65%. It also gave an IC50 [16] of 4.71 µM, an IC50 [17] of 5.4 µM and an inhibition at 3 µM [18] of 15.9%. For the same molecule, the IC50 [19] was over 100 µM, the half-life at 50 µM [20] was 5.6 h and the IC50 [21] was over 100 µM. The Activity [22] was “Non-Toxic”, the IC50 [23] was 0.229 µM and the Activity [24] was “Non-Toxic”. For the same molecule, the Cmax [25] was 171 ng/mL, the Activity [26] was “Non-Toxic” and the Activity [27] was “Dose-Dependent Effect”. It also gave an IC50 [28] of 0.004 µM, an IC50 [29] of over 10 µM and an AUC(0-inf) [30] of 2820 ng·h/mL. For the same molecule, the Activity [31] was “Non-Toxic”, the IC50 [32] was 0.629 µM and the IC50 [33] was 0.011 µM. The IC50 [34] was 1.03 µM, the Activity [35] was “Non-Toxic” and the Drug metabolism [36] was “Metabolite_Detected”. The IC50 [37] was over 10 µM, the Cmax [38] was 906 ng/mL and the IC50 [39] was 6.53 µM. The IC50 [40] was 1.01 µM, the Cmax [41] was 208 ng/mL and the Activity [42] was “Non-Toxic”.
